# Numbers after ± are expanded uncertainties.
# Assay: molar heat capacity at constant volume
# Settings: Fluid (supercritical or subcritical phases), Vacuum adiabatic calorimetry
structure (smiles),measurement,setting,value
CCC(C)O (stereo unspecified) [butan-2-ol],molar heat capacity at constant volume,"533.36 K, Mass density=301.19 kg/m3",394.33 ± 3.7 J/K/mol
same,molar heat capacity at constant volume,"533.36 K, Mass density=347.06 kg/m3",375.06 ± 3.7 J/K/mol
same,molar heat capacity at constant volume,"533.36 K, Mass density=474.07 kg/m3",196.42 ± 2.2 J/K/mol
same,molar heat capacity at constant volume,"533.54 K, Mass density=184.89 kg/m3",510.48 ± 5.7 J/K/mol
same,molar heat capacity at constant volume,"533.54 K, Mass density=198.25 kg/m3",497.8 ± 5 J/K/mol
same,molar heat capacity at constant volume,"533.54 K, Mass density=245.67 kg/m3",452.07 ± 4.5 J/K/mol
same,molar heat capacity at constant volume,"533.54 K, Mass density=284.93 kg/m3",412.49 ± 4.2 J/K/mol
same,molar heat capacity at constant volume,"533.54 K, Mass density=286.65 kg/m3",422.42 ± 4.2 J/K/mol
same,molar heat capacity at constant volume,"533.54 K, Mass density=301.19 kg/m3",399.52 ± 3.7 J/K/mol
same,molar heat capacity at constant volume,"533.54 K, Mass density=347.06 kg/m3",375.06 ± 3.7 J/K/mol
same,molar heat capacity at constant volume,"533.54 K, Mass density=474.07 kg/m3",196.42 ± 2.2 J/K/mol
same,molar heat capacity at constant volume,"533.68 K, Mass density=286.65 kg/m3",420.64 ± 4.2 J/K/mol
same,molar heat capacity at constant volume,"533.72 K, Mass density=184.89 kg/m3",467.11 ± 5.4 J/K/mol
same,molar heat capacity at constant volume,"533.72 K, Mass density=198.25 kg/m3",506.55 ± 5.1 J/K/mol
same,molar heat capacity at constant volume,"533.72 K, Mass density=245.67 kg/m3",456.07 ± 4.6 J/K/mol
same,molar heat capacity at constant volume,"533.72 K, Mass density=284.93 kg/m3",412.86 ± 4.2 J/K/mol
same,molar heat capacity at constant volume,"533.72 K, Mass density=301.19 kg/m3",403.96 ± 4.4 J/K/mol
same,molar heat capacity at constant volume,"533.72 K, Mass density=347.06 kg/m3",377.28 ± 3.7 J/K/mol
same,molar heat capacity at constant volume,"533.74 K, Mass density=184.89 kg/m3",332.58 ± 4.3 J/K/mol
same,molar heat capacity at constant volume,"533.76 K, Mass density=184.89 kg/m3",294.56 ± 4 J/K/mol
same,molar heat capacity at constant volume,"533.78 K, Mass density=184.89 kg/m3",303.68 ± 4.1 J/K/mol
same,molar heat capacity at constant volume,"533.8 K, Mass density=184.89 kg/m3",307.31 ± 4.1 J/K/mol
same,molar heat capacity at constant volume,"533.81 K, Mass density=184.89 kg/m3",283.59 ± 3.9 J/K/mol
same,molar heat capacity at constant volume,"533.91 K, Mass density=198.25 kg/m3",508.47 ± 5.3 J/K/mol
same,molar heat capacity at constant volume,"533.91 K, Mass density=245.67 kg/m3",462 ± 4.7 J/K/mol
same,molar heat capacity at constant volume,"533.91 K, Mass density=284.93 kg/m3",414.71 ± 4.2 J/K/mol
same,molar heat capacity at constant volume,"533.91 K, Mass density=286.65 kg/m3",429.46 ± 4.3 J/K/mol
same,molar heat capacity at constant volume,"533.91 K, Mass density=301.19 kg/m3",408.41 ± 4.4 J/K/mol
same,molar heat capacity at constant volume,"533.91 K, Mass density=347.06 kg/m3",375.06 ± 3.7 J/K/mol
same,molar heat capacity at constant volume,"534.09 K, Mass density=198.25 kg/m3",520.78 ± 5.5 J/K/mol
same,molar heat capacity at constant volume,"534.09 K, Mass density=245.67 kg/m3",460.22 ± 4.7 J/K/mol
same,molar heat capacity at constant volume,"534.09 K, Mass density=279.19 kg/m3",425.38 ± 4.3 J/K/mol
same,molar heat capacity at constant volume,"534.09 K, Mass density=284.93 kg/m3",420.86 ± 4.2 J/K/mol
same,molar heat capacity at constant volume,"534.09 K, Mass density=301.19 kg/m3",412.12 ± 4.4 J/K/mol
same,molar heat capacity at constant volume,"534.09 K, Mass density=347.06 kg/m3",382.47 ± 4.4 J/K/mol
same,molar heat capacity at constant volume,"534.27 K, Mass density=198.25 kg/m3",538.57 ± 6.2 J/K/mol
same,molar heat capacity at constant volume,"534.27 K, Mass density=245.67 kg/m3",465.85 ± 4.7 J/K/mol
same,molar heat capacity at constant volume,"534.27 K, Mass density=279.19 kg/m3",430.42 ± 4.4 J/K/mol
same,molar heat capacity at constant volume,"534.27 K, Mass density=284.93 kg/m3",420.42 ± 4.2 J/K/mol
same,molar heat capacity at constant volume,"534.27 K, Mass density=286.65 kg/m3",436.5 ± 4.4 J/K/mol
same,molar heat capacity at constant volume,"534.27 K, Mass density=347.06 kg/m3",387.66 ± 4.4 J/K/mol
same,molar heat capacity at constant volume,"534.46 K, Mass density=198.25 kg/m3",527.82 ± 6 J/K/mol
same,molar heat capacity at constant volume,"534.46 K, Mass density=245.67 kg/m3",472.82 ± 4.8 J/K/mol
same,molar heat capacity at constant volume,"534.46 K, Mass density=279.19 kg/m3",435.09 ± 4.4 J/K/mol
same,molar heat capacity at constant volume,"534.46 K, Mass density=284.93 kg/m3",425.75 ± 4.3 J/K/mol
same,molar heat capacity at constant volume,"534.46 K, Mass density=286.65 kg/m3",439.47 ± 4.4 J/K/mol
same,molar heat capacity at constant volume,"534.46 K, Mass density=301.19 kg/m3",418.79 ± 4.4 J/K/mol
same,molar heat capacity at constant volume,"534.46 K, Mass density=347.06 kg/m3",400.26 ± 4.4 J/K/mol
same,molar heat capacity at constant volume,"534.64 K, Mass density=184.89 kg/m3",279.36 ± 2.8 J/K/mol
same,molar heat capacity at constant volume,"534.64 K, Mass density=198.25 kg/m3",354.23 ± 4.5 J/K/mol
same,molar heat capacity at constant volume,"534.64 K, Mass density=245.67 kg/m3",484.53 ± 4.9 J/K/mol
same,molar heat capacity at constant volume,"534.64 K, Mass density=276.45 kg/m3",433.39 ± 4.4 J/K/mol
same,molar heat capacity at constant volume,"534.64 K, Mass density=279.19 kg/m3",437.91 ± 4.4 J/K/mol
same,molar heat capacity at constant volume,"534.64 K, Mass density=284.93 kg/m3",426.57 ± 4.3 J/K/mol
same,molar heat capacity at constant volume,"534.64 K, Mass density=301.19 kg/m3",421.75 ± 4.4 J/K/mol
same,molar heat capacity at constant volume,"534.64 K, Mass density=347.06 kg/m3",353.56 ± 3.7 J/K/mol
same,molar heat capacity at constant volume,"534.64 K, Mass density=403.55 kg/m3",223.85 ± 2.2 J/K/mol
same,molar heat capacity at constant volume,"534.82 K, Mass density=198.25 kg/m3",329.47 ± 4.2 J/K/mol
same,molar heat capacity at constant volume,"534.82 K, Mass density=245.67 kg/m3",491.43 ± 5 J/K/mol
same,molar heat capacity at constant volume,"534.82 K, Mass density=276.45 kg/m3",435.91 ± 4.5 J/K/mol
same,molar heat capacity at constant volume,"534.82 K, Mass density=279.19 kg/m3",441.54 ± 4.5 J/K/mol
same,molar heat capacity at constant volume,"534.82 K, Mass density=284.93 kg/m3",430.13 ± 4.4 J/K/mol
same,molar heat capacity at constant volume,"534.82 K, Mass density=301.19 kg/m3",429.16 ± 4.4 J/K/mol
same,molar heat capacity at constant volume,"534.82 K, Mass density=347.06 kg/m3",246.08 ± 3 J/K/mol
same,molar heat capacity at constant volume,"534.82 K, Mass density=403.55 kg/m3",223.11 ± 2.2 J/K/mol
same,molar heat capacity at constant volume,"535.01 K, Mass density=198.25 kg/m3",313.31 ± 4.7 J/K/mol
same,molar heat capacity at constant volume,"535.01 K, Mass density=245.67 kg/m3",498.39 ± 5.2 J/K/mol
same,molar heat capacity at constant volume,"535.01 K, Mass density=276.45 kg/m3",443.47 ± 4.8 J/K/mol
same,molar heat capacity at constant volume,"535.01 K, Mass density=284.93 kg/m3",435.02 ± 4.4 J/K/mol
same,molar heat capacity at constant volume,"535.01 K, Mass density=301.19 kg/m3",431.39 ± 4.4 J/K/mol
same,molar heat capacity at constant volume,"535.01 K, Mass density=347.06 kg/m3",242.38 ± 3 J/K/mol
same,molar heat capacity at constant volume,"535.01 K, Mass density=403.55 kg/m3",225.33 ± 2.2 J/K/mol
same,molar heat capacity at constant volume,"535.19 K, Mass density=198.25 kg/m3",319.91 ± 4.7 J/K/mol
same,molar heat capacity at constant volume,"535.19 K, Mass density=245.67 kg/m3",508.62 ± 5.1 J/K/mol
same,molar heat capacity at constant volume,"535.19 K, Mass density=276.45 kg/m3",453.85 ± 5.3 J/K/mol
same,molar heat capacity at constant volume,"535.19 K, Mass density=279.19 kg/m3",457.11 ± 4.7 J/K/mol
same,molar heat capacity at constant volume,"535.19 K, Mass density=284.93 kg/m3",440.21 ± 4.6 J/K/mol
same,molar heat capacity at constant volume,"535.19 K, Mass density=301.19 kg/m3",440.28 ± 4.4 J/K/mol
same,molar heat capacity at constant volume,"535.19 K, Mass density=347.06 kg/m3",243.12 ± 3 J/K/mol
same,molar heat capacity at constant volume,"535.19 K, Mass density=403.55 kg/m3",223.11 ± 2.2 J/K/mol
same,molar heat capacity at constant volume,"535.37 K, Mass density=184.89 kg/m3",286.33 ± 2.9 J/K/mol
same,molar heat capacity at constant volume,"535.37 K, Mass density=198.25 kg/m3",301.3 ± 3.2 J/K/mol
same,molar heat capacity at constant volume,"535.37 K, Mass density=245.67 kg/m3",516.03 ± 5.6 J/K/mol
same,molar heat capacity at constant volume,"535.37 K, Mass density=276.45 kg/m3",460.59 ± 4.8 J/K/mol
same,molar heat capacity at constant volume,"535.37 K, Mass density=279.19 kg/m3",465.85 ± 4.7 J/K/mol
same,molar heat capacity at constant volume,"535.37 K, Mass density=284.93 kg/m3",441.02 ± 4.8 J/K/mol
same,molar heat capacity at constant volume,"535.37 K, Mass density=286.65 kg/m3",467.56 ± 4.9 J/K/mol
same,molar heat capacity at constant volume,"535.37 K, Mass density=301.19 kg/m3",445.47 ± 5.2 J/K/mol
same,molar heat capacity at constant volume,"535.37 K, Mass density=403.55 kg/m3",219.4 ± 2.2 J/K/mol
same,molar heat capacity at constant volume,"535.55 K, Mass density=184.89 kg/m3",286.55 ± 2.9 J/K/mol
same,molar heat capacity at constant volume,"535.55 K, Mass density=245.67 kg/m3",535.08 ± 5.8 J/K/mol
same,molar heat capacity at constant volume,"535.55 K, Mass density=276.45 kg/m3",474.75 ± 5 J/K/mol
same,molar heat capacity at constant volume,"535.55 K, Mass density=279.19 kg/m3",472.08 ± 5.1 J/K/mol
same,molar heat capacity at constant volume,"535.55 K, Mass density=284.93 kg/m3",454.96 ± 5 J/K/mol
same,molar heat capacity at constant volume,"535.55 K, Mass density=286.65 kg/m3",474.38 ± 4.9 J/K/mol
same,molar heat capacity at constant volume,"535.55 K, Mass density=301.19 kg/m3",458.07 ± 5.2 J/K/mol
same,molar heat capacity at constant volume,"535.55 K, Mass density=347.06 kg/m3",243.12 ± 2.2 J/K/mol
same,molar heat capacity at constant volume,"535.55 K, Mass density=403.55 kg/m3",220.88 ± 2.2 J/K/mol
same,molar heat capacity at constant volume,"535.74 K, Mass density=198.25 kg/m3",286.33 ± 3 J/K/mol
same,molar heat capacity at constant volume,"535.74 K, Mass density=245.67 kg/m3",563.92 ± 6.2 J/K/mol
same,molar heat capacity at constant volume,"535.74 K, Mass density=276.45 kg/m3",489.72 ± 5.3 J/K/mol
same,molar heat capacity at constant volume,"535.74 K, Mass density=279.19 kg/m3",488.09 ± 5.1 J/K/mol
same,molar heat capacity at constant volume,"535.74 K, Mass density=284.93 kg/m3",470.52 ± 5.2 J/K/mol
same,molar heat capacity at constant volume,"535.74 K, Mass density=286.65 kg/m3",487.57 ± 6.7 J/K/mol
same,molar heat capacity at constant volume,"535.74 K, Mass density=301.19 kg/m3",477.34 ± 5.2 J/K/mol
same,molar heat capacity at constant volume,"535.74 K, Mass density=347.06 kg/m3",249.05 ± 2.2 J/K/mol

# — the NIST ThermoML archive (doi:10.1016/j.tca.2013.08.031)
